Laboratory results as given in patent US20080064643A1, “Myd88 Homodimerization Inhibitors” (priority 2004, published 2008).
Starred links: 1 amine or outer side, 2 acyl side, 3 side chain; linkers in the order of their positions; H or OH if unused. Non-standard residues stand in square brackets, D forms with d. Residues, ends and D or L forms follow the SMILES beside them. *: point of attachment. AzaVal = azavaline, CC(C)N(N[*:1])C(=O)[*:2]; X1 = NC(=O)CN1CC[C@@]2(CCCN2*)C1=O; azaLeu = CC(C)CN(N[*:1])C(=O)[*:2]

Legend:
NF-kB [1] = test: NF-kB inhibition assay in HeLa cells stimulated with IL1α (Trans AM ELISA); format: cell-based, Human; conditions: for % NF-κB INHIBITION: HeLa cells, compound 100 μM for 6 hours, then 5 ng/ml IL1α for 30 minutes; for inhibition at 100 µM: Homo sapiens, HeLa, read-out: % NF-κB INHIBITION
Method: The activation of NF-kB is an event that takes place downstream of the homodimerisation of MyD88 and its binding to the intracytoplasmic portions of number of receptor complexes. The ability of the compounds which are the subject of the present invention to inhibit the activation of NF-kB downstream of the amplification cascade of the signal triggered by IL1α was therefore evaluated.
All the molecules were assayed beforehand with the MTT cell viability test, verifying that the dose of compound used in the NF-kB inhibition assay was lower than the toxic dose.
HeLa* cells were cultured in EMEM (EBSS) medium supplemented with 2 mM glutamine+1% non-essential amino acids+7.5% FBS (Foetal Bovine Serum)+10 ml/l of a solution of penicillin-streptomycin (10,000 units/ml penicillin and 10 mg/ml streptomycin).
(All cell media and the various components were purchased from Sigma-Aldrich. *HeLa cell line Human Negroid cervix epithelioid carcinoma Human from SIGMA ALDRICH ECACC Ref No: 93021013. IL1α*=SIGMA I2778 Interleukin-1-alpha IL1a Human, recombinant expressed in E. coli).
The cells were used after a number of cell passages ranging from 14 to 35.
Cells are seeded in 6-well plates at a density of 300,000 cells/well in complete medium and incubated overnight at 37° C., 5% CO2.
After approximately 18 hours, the complete medium is eliminated, cells are washed twice with PBS 1× and 1 ml of FBS-free medium is added to each well.
The molecules to be tested are subsequently added to the medium at a concentration of 100 μM. Cells are then incubated for 6 hours at 37° C., 5% CO2.
All the molecules assayed were dissolved in DMSO.
An equivalent volume of DMSO is added to the negative controls, i.e. cells not treated with the molecules.
At the end of the treatment with the molecules, the cells are stimulated with 5 ng/ml of IL1α* for 30 minutes and incubated at 37° C., 5% CO2.
An equivalent volume of PBS/BSA 0.4% (solution used to dissolve IL1α) is added to the negative controls, i.e. non-stimulated cells.
After stimulation with IL1α the cells are washed twice with PBS 1× and collected by cell scraping.
The cells are then centrifuged at 800 rpm, 4° C., 10 min. The supernatants are eliminated. The pellets are re-suspended in lysis buffer**, incubated for 10 minutes at 4° C. and centrifuged at maximum speed at 4° C. The pellets are eliminated and the supernatants frozen at −80° C.
The total protein content is subsequently measured by Bradford Assay using, as the standard, BSA at known concentration, and as used in the ELISA assay as described here below.
Activation/inhibition of NF-kB is evaluated using the Trans AM# (Active Motif) kit.
Il Trans AM kit permits detection of the activation of NF-kB induced by IL1α, through a calorimetric reaction that is obtained at the end of a routine ELISA assay.
The kit provides 96-well plates derivatised with an oligonucleotide that contains the consensus site of NF-kB (5′-GGGACTTT-CC-3′). This oligonucleotide specifically binds only the active form of NF-kB which is released after stimulation with IL1α. The first antibody supplied for detecting NF-kB recognises the p65 epitope which is accessible only when the transcriptional factor is active and binds its target DBNA sequence.
The secondary antibody supplied is conjugated to horse radish peroxidase which, with the addition of a chromogenic substrate, makes it possible to obtain a calorimetric reaction that can be evaluated spectrophotometrically at the wavelength of 450 nm.
The samples are assayed in duplicate and 10 μg of each extract are loaded into each well.
At the end of the assay, the % inhibition is calculated by processing the values obtained in the spectrophotometric readings as follows:
IL*-C*/IL-C=% activation of NF-kB.
IL*=A450 of cells stimulated and treated with the study molecules.
C*=A450 of cells not stimulated and treated with the study molecules.
IL=A450 of cells stimulated with IL1α and not treated with the molecules.
C=A450 of cells not stimulated and not treated. […]

NF-kB [2] = test: NF-kB activation inhibition, preliminary studies on natural peptides (Table 1); format: cell-based; conditions: conditions not stated
Excerpt: (§1) Preliminary studies on the inhibition of the homodimerisation of MyD88 have been conducted by the present inventors using a co-immunoprecipiation assay on a series of natural peptides (synthesised as acetylamide at the N terminal and as primary amide at the carboxyl terminal) comprising the consensus sequence of the BB loop. […] The protein myc-MyD88 is expressed temporarily in HEK293 cells and isolated from cell extracts by immunoprecipitation with the anti-myc antibody. The immunoprecipitated protein is incubated with purified protein GST-MyD88TIR for 60 min at 4° C. in the presence or absence of the synthetic peptide (final concentration 200 μM). After suitable washings, the proteins absorbed to the resin used for the immunoprecipitation are solubilised with SDS and analysed by Western blot for the presence of myc-MyD88 and GST-MyD88TIR. Percentage inhibition of NF-kB activation is also given for these two peptides

MyD88 homodimer = biological target: T1, MyD88 homodimer (Homo sapiens, UniProt Q99836); test: co-immunoprecipitation assay of MyD88 homodimerisation (myc-MyD88 / GST-MyD88TIR, Western blot); format: binding; conditions: residual interaction in the MyD88 homodimer as percentage of the untreated protein; peptide 200 μM, 60 min at 4° C.
T1 construct: incubated with purified protein GST-MyD88TIR; made in house; host or cells: HEK293 (myc-MyD88, transient expression)
Excerpt: as §1

[3] = tested on: IL-1-responsive human IL-8 promoter gene region; test: reporter gene assay (RGA) of luciferase activity in CaCo2 cells stimulated with IL-1; format: cell-based; conditions: substance 100 μM, IL-1 500 pg/mL
Excerpt: It is based on transient co-transfection of CaCo2 human intestinal epithelial cells with a reporter gene plasmid whose luciferase reporter gene expression is under control of the IL-1-responsive human IL-8 promoter gene region. The second plasmid in co-transfection is a vector coding for a control Renilla luciferase reporter gene, whose constitutive expression is used to estimate unspecific cellular toxicity of tested compounds. The read-out of the assay has been defined as the Relative Response Ratio (RRR) for the firefly and the Renilla luciferase, as follows: [formula] where the experimental sample is the value in cont per second (cps) of the experimental reporter luminescence, as defined for any unknown sample. The positive control is the value in cps of the reporter luminescence, as defined for the sample which identifies the maximal induction by IL-1 in the absence of reference inhibitor compound. The negative control is the value in cps of the reporter luminescence, as defined for the sample which identifies the absence of induction by IL-1. For the non-inducible Renilla luciferase, the RRR has been defined as follows: [formula]
The RGA is the read-out of the above experiments, and it was run as follows:
Plate 6×10^6 adherent CaCo2 cells on 10 cm plates. After 18-24 hours culture medium is changed, using 9 mL of D-MEM+glutamine 580 mg/L, without FBS and antibiotics. For each plate, 26 μg of IL-1-responsive reporter vector DNA (pGL2-NA-INT) and 4 μg of control reporter vector DNA are then dissolved in 500 μL Optimem (Invitrogen). Lipofectamine 2000 Reagent (Invitrogen) 30 μL are then added to 500 μL Optimem; this latter reaction mix is incubated for 5 min at room temperature. The DNA mix is then added drop by drop to the Lipofectamine 2000 mix. The resulting DNA/Lipofectamine mix is incubated for 20 min at room temperature and it is added drop by drop over the culture plate, by gently rocking the plate itself. Culture plates are then incubated for about 6 hours at 37° C. and 5% CO2. Cells are then trypsinized and transferred in 96-well plates, at 5×10^4 cells/well in 100 μL of culture medium (D-MEM with FBS 1%,+glutamine 580 mg/L), as required by the experimental design. Afterwards, cells were incubated for 16-18 hours at 37° C. and 5% CO2 and treated as follows: • Take out culture medium from each well. • Add 60 μL of fresh culture medium to control cell wells. • Add 40 μL of fresh culture medium to IL-1-treated wells. • Add 40 μL of fresh culture medium and 20 μL of substance at a concentration of 100 μM and 0.4% DMSO to inhibitor substance wells. • Add 20 μL fresh culture medium supplemented with 0.4% DMSO in IL-1-treated wells and in control cell wells. • Incubate at 37° C. and 5% CO2 for 4 hours. • After 2 hours, stimulate with 20 μL of IL-1 (500 pg/mL) for two additional hours at 37° C. and 5% CO2. • Appropriate amount of luciferase standard protein is included in additional assay wells. • Add for each well 80 μL of firefly luciferase substrate (Dual-Glo Luciferase Assay System reagent). • Incubate at room temperature for 10 min. • Read the firefly luciferase output on the Veritas lumenometer (Turner BioSystems). • Immediately add to each well 80 μL of the Renilla luciferase substrate (Dual-Glo Luciferase Assay System reagent). • Incubate at room temperature for 10 min. • Read the Renilla luciferase output on the Veritas lumenometer (Turner BioSystems).
Compounds considered positive in the RGA assay were those that gave a percentage inhibition ≧20%.

T1 sequence (Q99836 whole entry): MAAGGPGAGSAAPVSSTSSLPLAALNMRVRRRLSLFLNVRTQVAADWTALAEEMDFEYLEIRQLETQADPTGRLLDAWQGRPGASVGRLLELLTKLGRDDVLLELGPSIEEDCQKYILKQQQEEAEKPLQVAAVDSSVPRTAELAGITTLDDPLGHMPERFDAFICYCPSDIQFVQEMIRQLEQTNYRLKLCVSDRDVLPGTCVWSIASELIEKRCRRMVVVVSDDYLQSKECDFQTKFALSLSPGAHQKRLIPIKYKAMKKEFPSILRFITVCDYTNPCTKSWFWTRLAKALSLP

Compound: CC(C)[C@H](NC(=O)[C@H](CC(=O)O)NC(=O)c1cccnc1)C(=O)N[C@H](C(=O)N1CCC[C@]12CCN(CC(N)=O)C2=O)C(C)C [ST2794, PAM9-Asp-Val-Val-Beta2-NH2]
- % NF-κB INHIBITION (NF-kB [1]): 25%

Compound: Ap-PTDLVRG-NH2 [ST2403, reference compound]
- inhibition of NF-κB activation (NF-kB [1]; HeLa cells stimulated with IL-1α): inactive

Compound: Ac-RDVVPGG-NH2 [ST2350]
- % NF-kB inhibition (NF-kB [2]): 20%
- % residual interaction (MyD88 homodimer): 18%

Compound: Ac-thr-Azagly-pro-leu-val-asp-arg-NH2 [ST2930]
- % INHIBITION [3]: 24%

Compound: COc1ccc(C(=O)N2CCC[C@]23CCN(CC(=O)N[C@H](C(N)=O)[C@@H](C)O)C3=O)cc1NC(=O)c1cccnc1 [ST2792, PAM9-SP02-Beta2-Thr-NH2]
- inhibition at 100 µM (NF-kB [1]): 22%

Compound: Ac-RDVLPGT-NH2 [ST2348]
- % NF-kB inhibition (NF-kB [2]): 37%
- % residual interaction (MyD88 homodimer): 29%

Compound: Ac-thr-gly-pro-leu-val-asp-arg-NH2 [ST2565]
- % NF-κB INHIBITION (NF-kB [1]): 30%

Compound: Ac-Azagly-Azagly-pro-leu-val-asp-arg-NH2 [ST3032]
- % INHIBITION [3]: 21%

Compound: CC(=O)N[C@H](CCCNC(=N)N)C(=O)N[C@H](CC(=O)O)C(=O)N[C@@H](C(=O)N[C@H](CC(C)C)C(=O)N1CCC[C@@]12CCN(CC(N)=O)C2=O)C(C)C [ST2799, Ac-arg-asp-val-leu-Beta1-NH2] (Ac-[dR][dD][dV][dL]-X1)
- % NF-κB INHIBITION (NF-kB [1]): 23%

Compound: Ac-Arg-Asp-AzaLeu-Val-Pro-Gly-NH2 (Ac-RD[azaLeu]VPG-NH2; SMILES CC(=O)N[C@@H](CCCNC(=N)N)C(=O)N[C@@H](CC(=O)O)C(=O)NN(CC(C)C)C(=O)N[C@H](C(=O)N1CCC[C@H]1C(=O)NCC(N)=O)C(C)C) [ST2928]
- % INHIBITION [3]: 29%

Compound: CC(=O)NCC(=O)N1CCC[C@H]1C(=O)Nc1cccc(C(=O)N[C@@H](CCCNC(=N)N)C(N)=O)c1C [ST2864, Ac-Gly-Pro-SP30-Arg-NH2]
- inhibition at 100 µM (NF-kB [1]): 16%

Compound: Ac-Arg-Asp-Val-AzaVal-Pro-Gly-NH2 [ST2920]
- % INHIBITION [3]: 25%

Compound: H-Arg-Gly-AzaVal-Val-Pro-Gly-NH2 (H-RG[AzaVal]VPG-NH2; SMILES CC(C)[C@H](NC(=O)N(NC(=O)CNC(=O)[C@@H](N)CCCNC(=N)N)C(C)C)C(=O)N1CCC[C@H]1C(=O)NCC(N)=O) [ST2926]
- % INHIBITION [3]: 20%

Compound: Ac-Arg-Asp-Azagly-Val-Pro-Gly-NH2 [ST2927]
- % INHIBITION [3]: 22%
